The subject of data set [1] is MES-SA/Dx5. The data set is described as follows: In vitro cytotoxicity. It counts as cell-based. The following applies: Homo sapiens. The text has this: (§1) Experiments were repeated at least 3 times.
For data set [2], the system named is MES-SA. The data set is described as follows: In vitro cytotoxicity. The following applies: Homo sapiens. It counts as cell-based.
Text: as §1

In data set [3] the test system is SK-MEL-28. Conditions: SK-MEL-28, NCI-60 database, sulforhodamine B; read-out: Cytotoxic IC50; cited from earlier work.
In data set [4] the test system is OVCAR-5. The following applies: OVCAR-5, NCI-60 database, sulforhodamine B; read-out: Cytotoxic IC50; cited from earlier work.
The subject of data set [5] is T-47D. The data set is described as follows: In vitro cytotoxicity (PrestoBlue). The following applies: Homo sapiens, T47D.
Procedure: (§2) Cells were seeded in 40 μl medium on 384 well plates by an automatic liquid handling machine (Hamilton StarLet) in a density of 2500 cells/well. Adherent cells were cultured for 24 h before the addition of the compounds, while drugs were added to non-adherent cells 2 h after cell seeding. The drugs were serially diluted, and dispensed in an additional 20 μl. Cells were incubated for an additional 72 h, cytotoxicity was assessed by the PrestoBlue viability reagent (Thermo Fisher). Experiments were repeated at least 3 times.
The subject of data set [6] is HS 578T. The data set is described as follows: In vitro cytotoxicity (PrestoBlue). Conditions: Homo sapiens.
Procedure: as §2
Data set [7] relates to BT-549. The data set is described as follows: In vitro cytotoxicity (PrestoBlue). Conditions: Homo sapiens.
Procedure: as §2
The test system of data set [8] is A498. The data set is described as follows: In vitro cytotoxicity (PrestoBlue). Type of data set: cell-based. The following applies: Homo sapiens, A498, 72 h; read-out: Cytotoxic IC50.
Text: as §1

The test system of data set [9] is Bx-PC-3. The data set is described as follows: In vitro cytotoxicity (PrestoBlue). It counts as cell-based. The following applies: Homo sapiens, BXPC-3; Bx-PC-3, 72 h; read-out: Cytotoxic IC50.
Text: as §1

The test system of data set [10] is CAKI-1. The data set is described as follows: In vitro cytotoxicity (PrestoBlue). Conditions: Homo sapiens, CAKI-1, 72 h; read-out: Cytotoxic IC50. Type of data set: cell-based.
Text: as §1

For data set [11], the system named is CCRF-CEM. The data set is described as follows: In vitro cytotoxicity (PrestoBlue). Type of data set: cell-based. The following applies: Homo sapiens, 72 h, read-out: Cytotoxic IC50.
Text: as §1

In data set [12] the test system is COLO 205. The data set is described as follows: In vitro cytotoxicity (PrestoBlue). Type of data set: cell-based. The following applies: Homo sapiens, COLO 205, 72 h; read-out: Cytotoxic IC50.
Text: as §1

For data set [13], the system named is DU-145. The data set is described as follows: In vitro cytotoxicity (PrestoBlue). Conditions: Homo sapiens, DU-145, 72 h; read-out: Cytotoxic IC50. Type of data set: cell-based.
Text: as §1

The test system of data set [14] is EKVX. The data set is described as follows: In vitro cytotoxicity (PrestoBlue). It counts as cell-based. Conditions: Homo sapiens, 72 h, read-out: Cytotoxic IC50.
Text: as §1

The subject of data set [15] is HCC-2998. The data set is described as follows: In vitro cytotoxicity (PrestoBlue). Type of data set: cell-based. Conditions: Homo sapiens; HCC-2998, 72 h; read-out: Cytotoxic IC50.
Text: as §1

In data set [16] the test system is HCT-116. The data set is described as follows: In vitro cytotoxicity (PrestoBlue). The following applies: Homo sapiens, HCT-116, 72 h; read-out: Cytotoxic IC50. It counts as cell-based.
Text: as §1

Data set [17] deals with HL-60(TB). The data set is described as follows: In vitro cytotoxicity (PrestoBlue). It counts as cell-based. The following applies: Homo sapiens, 72 h, read-out: Cytotoxic IC50.
Text: as §1

The test system of data set [18] is HOP-62. The data set is described as follows: In vitro cytotoxicity (PrestoBlue). Conditions: Homo sapiens, HOP-62, 72 h; read-out: Cytotoxic IC50. Type of data set: cell-based.
Text: as §1

In data set [19] the test system is KM12. The data set is described as follows: In vitro cytotoxicity (PrestoBlue). Type of data set: cell-based. The following applies: Homo sapiens, KM12, 72 h; read-out: Cytotoxic IC50.
Text: as §1

Data set [20] has as its system MALME-3M. The data set is described as follows: In vitro cytotoxicity (PrestoBlue). Conditions: Homo sapiens, 72 h, read-out: Cytotoxic IC50. It counts as cell-based.
Text: as §1

Data set [21] deals with MDA-MB-435. The data set is described as follows: In vitro cytotoxicity (PrestoBlue). It counts as cell-based. Conditions: Homo sapiens, MDA-MB-435, 72 h; read-out: Cytotoxic IC50.
Text: as §1

In data set [22] the test system is NCI-H226. The data set is described as follows: In vitro cytotoxicity (PrestoBlue). It counts as cell-based. Conditions: Homo sapiens, NCI-H226, 72 h; read-out: Cytotoxic IC50.
Text: as §1

Data set [23] deals with NCI-H522. The data set is described as follows: In vitro cytotoxicity (PrestoBlue). It counts as cell-based. Conditions: Homo sapiens, NCI-H522, 72 h; read-out: Cytotoxic IC50.
Text: as §1

Data set [24] deals with NCI/ADR-RES. The data set is described as follows: In vitro cytotoxicity (PrestoBlue). Type of data set: cell-based. Conditions: Homo sapiens, 72 h, read-out: Cytotoxic IC50.
Text: as §1

The test system of data set [25] is OVCAR-3. The data set is described as follows: In vitro cytotoxicity (PrestoBlue). Conditions: Homo sapiens, OVCAR-3, 72 h; read-out: Cytotoxic IC50. It counts as cell-based.
Text: as §1

Data set [26] relates to OVCAR-5. The data set is described as follows: In vitro cytotoxicity (PrestoBlue). It counts as cell-based. Conditions: Homo sapiens, OVCAR-5, 72 h; read-out: Cytotoxic IC50.
Text: as §1

For data set [27], the system named is OVCAR-8. The data set is described as follows: In vitro cytotoxicity (PrestoBlue). The following applies: Homo sapiens, OVCAR-8, 72 h; read-out: Cytotoxic IC50. It counts as cell-based.
Text: as §1

The test system of data set [28] is PANC-1. The data set is described as follows: In vitro cytotoxicity (PrestoBlue). Type of data set: cell-based. The following applies: Homo sapiens, PANC-1, 72 h; read-out: Cytotoxic IC50.
Text: as §1

For data set [29], the system named is PC-3. The data set is described as follows: In vitro cytotoxicity (PrestoBlue). Type of data set: cell-based. Conditions: Homo sapiens, PC-3, 72 h; read-out: Cytotoxic IC50.
Text: as §1

Data set [30] has as its system RXF 393. The data set is described as follows: In vitro cytotoxicity (PrestoBlue). It counts as cell-based. Conditions: Homo sapiens, RXF 393, 72 h; read-out: Cytotoxic IC50.
Text: as §1

The subject of data set [31] is SK-MEL-28. The data set is described as follows: In vitro cytotoxicity (PrestoBlue). Type of data set: cell-based. The following applies: Homo sapiens, SK-MEL-28, 72 h; read-out: Cytotoxic IC50.
Text: as §1

Data set [32] deals with SK-MEL-2. The data set is described as follows: In vitro cytotoxicity (PrestoBlue). Type of data set: cell-based. Conditions: Homo sapiens, SK-MEL-2, 72 h; read-out: Cytotoxic IC50.
Text: as §1

Data set [33] deals with SW-620. The data set is described as follows: In vitro cytotoxicity (PrestoBlue). It counts as cell-based. The following applies: Homo sapiens, SW-620, 72 h; read-out: Cytotoxic IC50.
Text: as §1

In data set [34] the test system is UO-31. The data set is described as follows: In vitro cytotoxicity (PrestoBlue). Conditions: Homo sapiens, UO-31, 72 h; read-out: Cytotoxic IC50. It counts as cell-based.
Text: as §1

Read-outs that look alike come from different tables or passages of the source.

The term IC50 denotes the point on the concentration scale where inhibition reaches its midpoint.

Consider `COc1cccc2c1C(=O)c1c(O)c3c(c(O)c1C2=O)C[C@@](O)(C(=O)CO)C[C@@H]3O[C@H]1C[C@H](N)[C@H](O)[C@H](C)O1` [DOX, doxorubicin], for which the 50% inhibitory concentration (IC50) is 2880 nM in [1] (MES-SA/Dx5, read-out: IC50); 20 nM in [1] (MES-SA/Dx5, presence of 1 μM tariquidar, read-out: IC50 + TQ); 20 nM in data set [2] (presence of 1 μM tariquidar, read-out: IC50 + TQ); 72 nM in data set [2] (read-out: IC50); 242 nM in data set [3]; 588 nM in data set [4]. Besides, the IC50 in data set [5] turned out to be 30 nM; in data set [6], 80 nM; in [7] (BT-549), 20 nM.
With `COc1cccc2c1C(=O)c1c(O)c3c(c(O)c1C2=O)C[C@@](O)(C(C)=O)C[C@@H]3O[C@H]1C[C@H]2[C@H](OC3CCCN32)[C@H](C)O1` (some centres unmarked) [PyDau, 2-deamino-2-pyrrolino-daunorubicin], the IC50 was 13.3 nM in data set [8]; 4.68 nM in data set [9]; 1.4 nM in data set [10]; 0.23 nM in data set [11]; 2.38 nM in [12]; 1.31 nM in [13]. The IC50 in data set [14] was found to be 3.67 nM; in [15], 8.19 nM; in data set [16], 3 nM; in data set [17], 0.9 nM; in [18], 4.16 nM; in data set [19], 1.42 nM. In addition, the concentration for half-maximal inhibition (IC50) in data set [20] came out at 1.84 nM; in data set [21], 1.86 nM; in data set [22] it was 4.44 nM; in data set [23] it was 0.94 nM; in [24], 1.38 nM; in data set [25], 1.22 nM. Besides, the IC50 in [26] is 1.93 nM; in [27], 1.19 nM; in data set [28], 1.77 nM; in data set [29] it was 2.54 nM; in data set [30], 4.66 nM; in data set [31], 6.87 nM. In addition, the half-inhibitory concentration (IC50) in data set [32] was 3.55 nM; in data set [33], 2.78 nM; in [34], 1.43 nM; in data set [1] (MES-SA/Dx5), 2.51 nM; in data set [2], 1.35 nM; in data set [5] (72 h, read-out: Cytotoxic IC50), 4.25 nM. The half-inhibitory concentration (IC50) in data set [6] (72 h, read-out: Cytotoxic IC50) was 1.77 nM; in data set [7] (BT-549, 72 h, read-out: Cytotoxic IC50), 4.68 nM.

(Values after US20250032525A1 (priority 2021, published 2025).)
